{
  "source": "ChEMBL document CHEMBL6182916",
  "about": "“Unexpected Discovery of a Novel Triphenylphosphonium Alkylalcohol That Triggers Cancer Cell Death via Mitophagy and Ferroptosis” (J Med Chem, 2025)",
  "key": {"[1]": {"test_system": "HCC827", "test": "Induction of ferroptosis in human HCC827 cells assessed as decrease in glutathione reductase activity at 0.25 to 0.5 uM incubated for 24 hrs by DTNB solution based based microplate reader analysis", "type": "functional, cell-based", "conditions": "dose 0.25-0.5 µM"}, "[2]": {"test_system": "SK-LU-1", "test": "Antiproliferative activity against human SK-LU-1 cells assessed as inhibition of cell growth measured after 72 hrs by MTT assay", "type": "functional, cell-based", "conditions": "SK-LU-1, 72 h"}, "[3]": {"test_system": "HCC827", "test": "Effect on NDUFB8 expression in human HCC827 cells at 0.25 to 0.5 uM incubated for 24 hrs by Western blot analysis", "type": "functional, cell-based", "conditions": "dose 0.25-0.5 µM"}, "[4]": {"test_system": "HCC827", "test": "Induction of mitochondrial dysfunction in human HCC827 cells assessed as appearance of disrupted cristae at 1 uM after 24 hrs by TEM analysis", "type": "functional, cell-based"}, "[5]": {"test_system": "HCC827", "test": "Induction of mitochondrial dysfunction in human HCC827 cells assessed as reduction in glycolytic capacity at 0.125 to 5 uM incubated for 4 hrs by Seahorse XF96 extracellular flux analyzer", "type": "functional, cell-based", "conditions": "dose 0.125-5 µM"}, "[6]": {"test": "Toxicity in female Kunming mouse assessed as animal death at 70 mg/kg, ip measured every two days for 7 days", "type": "organism-based", "conditions": "in vivo, 168 h, time 7 day"}, "[7]": {"test": "Toxicity in male Kunming mouse assessed as change in body weight at 50 mg/kg, ip measured every two days for 7 days", "type": "organism-based", "conditions": "in vivo, 168 h, time 7 day"}, "[8]": {"test_system": "HCC827", "test": "Downregulation of VDAC1 expression level in human HCC827 cells 0.5 uM incubated for 3 to 24 hrs in presence of BFA by Western blot analysis", "type": "functional, cell-based", "conditions": "time 3-24 hrs"}, "[9]": {"test_system": "HCC827", "test": "Induction of ROS generation in human HCC827 cells assessed as decrease in NADH content at 1 uM incubated for 4 hrs by absorbance based analysis", "type": "functional, cell-based"}, "[10]": {"test_system": "HCC827", "test": "Downregulation of TIMM23 expression level in human HCC827 cells at 0.5 uM incubated for 24 hrs in presence of Baf A1 by Western blot analysis", "type": "functional, cell-based"}, "[11]": {"test_system": "HCC827", "test": "Antiproliferative activity against human HCC827 cells assessed as cell viability at 1 uM measured after 48 hrs in presence of SAS by MTT assay relative to control", "type": "functional", "conditions": "read-out: Activity"}, "[12]": {"test_system": "HCC827", "test": "Induction of mitochondrial dysfunction in human HCC827 cells assessed as suppression of maximal oxygen consumption rate incubated for 4 hrs by Seahorse XF96 extracellular flux analyzer", "type": "functional, cell-based", "conditions": "dose 0.125-5 µM"}, "[13]": {"test_system": "HCC827", "test": "Induction of cell cycle arrest in human HCC827 cells assessed as accumulation of cells at G2 phase at 0.4 uM incubated for 24 hrs by PI staining based flow cytometry analysis (reference value: 7.15%)", "type": "functional"}, "[14]": {"test_system": "HCC827", "test": "Induction of apoptosis in human HCC827 cells assessed as viable cells at 0.25 uM measured after 48 hrs by annexin V and PI staining based flow cytometry analysis (reference value: 96.74%)", "type": "functional", "conditions": "read-out: Activity"}, "[15]": {"test_system": "A549", "test": "Antiproliferative activity against human A549 cells assessed as inhibition of cell growth measured after 72 hrs by MTT assay", "type": "functional, cell-based", "conditions": "A549, 72 h"}, "[16]": {"test_system": "HCC827", "test": "Induction of cell cycle arrest in human HCC827 cells assessed as accumulation of cells at G1 phase at 0.2 uM incubated for 24 hrs by PI staining based flow cytometry analysis (reference value: 66.44%)", "type": "functional"}, "[17]": {"test_system": "HCC827", "test": "Induction of ferroptosis in human HCC827 cells assessed as decrease in xCT expression incubated for 24 hrs", "type": "functional, cell-based", "conditions": "dose 0.25-0.5 µM"}, "[18]": {"test_system": "HCC827", "test": "Induction of ROS generation in human HCC827 cells at 1 uM incubated for 4 hrs in presence of VC by DCFH-DA staining based by absorbance based laser confocal microscopic analysis", "type": "functional, cell-based"}, "[19]": {"test": "Antiproliferative activity against human BEAS-2B cells assessed as inhibition of cell growth measured after 72 hrs by MTT assay", "type": "toxicity, cell-based"}, "[20]": {"test_system": "HCC827", "test": "Induction of apoptosis in human HCC827 cells assessed as necrotic cells at 1 uM measured after 24 hrs by annexin V and PI staining based flow cytometry analysis (Rvb =0.84%)", "type": "functional"}, "[21]": {"test_system": "MCF7", "test": "Antiproliferative activity against human MCF7 cells assessed as inhibition of cell growth measured after 72 hrs by MTT assay", "type": "functional, cell-based", "conditions": "MCF7, 72 h"}, "[22]": {"test_system": "NCI-H1975", "test": "Antiproliferative activity against human NCI-H1975 cells assessed as inhibition of cell growth measured after 72 hrs by MTT assay", "type": "functional, cell-based", "conditions": "NCI-H1975, 72 h"}, "[23]": {"test": "Antiproliferative activity against human HUVEC cells assessed as inhibition of cell growth measured after 72 hrs by MTT assay", "type": "toxicity, cell-based"}, "[24]": {"test_system": "HCC827", "test": "Induction of cell cycle arrest in human HCC827 cells assessed as accumulation of cells at S phase at 0.1 uM incubated for 24 hrs by PI staining based flow cytometry analysis (reference value: 26.41%)", "type": "functional"}, "[25]": {"test_system": "MDA-MB-231", "test": "Antiproliferative activity against human MDA-MB-231 cells assessed as inhibition of cell growth measured after 72 hrs by MTT assay", "type": "functional, cell-based", "conditions": "MDA-MB-231, 72 h"}, "[26]": {"test_system": "HCC827", "test": "Antimetastatic activity against human HCC827 cells xenografted in female nude mouse model assessed as increase in cadherin level at 5 to 10 mg/kg, ip by Western blot analysis", "type": "functional, organism-based", "conditions": "dose 5-10 mg/kg"}, "[27]": {"test": "Drug accumulation in mitochondria of human HCC827 cells at 10 uM incubated for 10 mins in presence of CCCP by RP-HPLC-UV analysis", "type": "ADME", "conditions": "hcc827, 10 min"}, "[28]": {"test_system": "HCC827", "test": "Induction of apoptosis in human HCC827 cells assessed as necrotic cells at 1 uM measured after 36 hrs by annexin V and PI staining based flow cytometry analysis (Rvb =0.84%)", "type": "functional"}, "[29]": {"test_system": "HCC827", "test": "Downregulation of SDHB protein level in human HCC827 cells at 0.25 to 0.5 uM measured after 12 hrs", "type": "functional, cell-based", "conditions": "dose 0.25-0.5 µM"}, "[30]": {"test_system": "HCC827", "test": "Antiproliferative activity against human HCC827 cells assessed as increase in cell viability at 1 uM measured after 48 hrs in presence of BFA by MTT assay", "type": "functional, cell-based"}, "[31]": {"test": "Antiproliferative activity against human LO2 cells assessed as inhibition of cell growth measured after 72 hrs by MTT assay", "type": "toxicity, cell-based, L02"}, "[32]": {"test_system": "HCC827", "test": "Induction of apoptosis in human HCC827 cells assessed as late apoptotic cells at 1 uM measured after 48 hrs by annexin V and PI staining based flow cytometry analysis (reference value: 2.18%)", "type": "functional"}, "[33]": {"test_system": "HCC827", "test": "Induction of apoptosis in human HCC827 cells assessed as early apoptotic cells at 0.5 uM measured after 48 hrs by annexin V and PI staining based flow cytometry analysis (reference value: 0.70%)", "type": "functional"}, "[34]": {"test_system": "Mitochondrial membrane", "test": "Induction of mitochondrial membrane depolarization in human BEAS-2B cells assessed as increase in JC-1 monomer ratio at 0.25 to 0.5 uM incubated for 4 hrs by JC-1 staining based confocal microscopy analysis", "type": "cell membranes", "conditions": "dose 0.25-0.5 µM"}, "[35]": {"test_system": "HCC827", "test": "Induction of apoptosis in human HCC827 cells assessed as viable cells at 1 uM measured after 48 hrs by annexin V and PI staining based flow cytometry analysis (reference value: 95.10%)", "type": "functional", "conditions": "read-out: Activity"}, "[36]": {"test_system": "HCC827", "test": "Induction of cell cycle arrest in human HCC827 cells assessed as increase in p53 expression level at 0.25 to 5 uM measured after 24 hrs by Western blot analysis", "type": "functional, cell-based", "conditions": "dose 0.25-5 µM"}, "[37]": {"test": "Toxicity in male Kunming mouse assessed as change in body weight at 70 mg/kg, ip measured every two days for 7 days", "type": "organism-based", "conditions": "in vivo, 168 h, time 7 day"}},
  "note": "Activity calls are given as the source filed them. No cut-off for these calls is given here.",
  "data": [
    {"compound": "Cc1ccc([P+](CCCCCCCCCCO)(c2ccc(C)cc2)c2ccc(C)cc2)cc1.[Br-]", "values": [
      {"measurement": "Activity", "setting": "[1]", "value": "Active"},
      {"measurement": "IC50", "setting": "[2]", "value": 230, "unit": "nM"},
      {"measurement": "Activity", "setting": "[3]", "value": "Active"},
      {"measurement": "Activity", "setting": "[4]", "value": "Active"},
      {"measurement": "Activity", "setting": "[5]", "value": "Active"},
      {"measurement": "Activity", "setting": "[6]", "value": "Toxic"},
      {"measurement": "Activity", "setting": "[7]", "value": "Toxic"},
      {"measurement": "Activity", "setting": "[8]", "value": "inactive"},
      {"measurement": "Activity", "setting": "[9]", "value": "Active"},
      {"measurement": "Activity", "setting": "[10]", "value": "inactive"},
      {"measurement": "viability at 1 µM", "setting": "[11]", "value": 7.48, "unit": "%"},
      {"measurement": "Activity", "setting": "[12]", "value": "Dose-dependent-effect"},
      {"measurement": "Activity", "setting": "[13]", "value": 4.95, "unit": "%"},
      {"measurement": "viability at 0.25 µM", "setting": "[14]", "value": 92.6, "unit": "%"},
      {"measurement": "IC50", "setting": "[15]", "value": 490, "unit": "nM"},
      {"measurement": "Activity", "setting": "[16]", "value": 76.74, "unit": "%"},
      {"measurement": "Activity", "setting": "[17]", "value": "Dose-dependent-effect"},
      {"measurement": "Activity", "setting": "[18]", "value": "inactive"},
      {"measurement": "IC50 at 72 h", "setting": "[19]", "value": 1420, "unit": "nM"},
      {"measurement": "Activity", "setting": "[20]", "value": 1.47, "unit": "%"},
      {"measurement": "IC50", "setting": "[21]", "value": 160, "unit": "nM"},
      {"measurement": "IC50", "setting": "[22]", "value": 200, "unit": "nM"},
      {"measurement": "IC50 at 72 h", "setting": "[23]", "value": 1800, "unit": "nM"},
      {"measurement": "Activity", "setting": "[24]", "value": 24.03, "unit": "%"},
      {"measurement": "IC50", "setting": "[25]", "value": 100, "unit": "nM"},
      {"measurement": "Activity", "setting": "[26]", "value": "Active"},
      {"measurement": "Drug uptake", "setting": "[27]", "value": "Not_active"},
      {"measurement": "Activity", "setting": "[28]", "value": 0.96, "unit": "%"},
      {"measurement": "Activity", "setting": "[29]", "value": "Active"},
      {"measurement": "Activity", "setting": "[30]", "value": "Active"},
      {"measurement": "IC50 at 72 h", "setting": "[31]", "value": 1310, "unit": "nM"},
      {"measurement": "Activity", "setting": "[32]", "value": 0.75, "unit": "%"},
      {"measurement": "Activity", "setting": "[33]", "value": 2.34, "unit": "%"},
      {"measurement": "Activity", "setting": "[34]", "value": "inactive"},
      {"measurement": "viability at 1 µM", "setting": "[35]", "value": 91.9, "unit": "%"},
      {"measurement": "Activity", "setting": "[36]", "value": "Active"},
      {"measurement": "Activity", "setting": "[37]", "value": "Toxic"}
    ]}
  ]
}
